Test results as given in US20110262977A1, “PROCESS FOR PRODUCTION OF OPTICALLY ACTIVE AMINE DERIVATIVE” (Daicel Chemical Industries, Ltd., priority 2008, published 2011).

Experiments:
[1] = test system: imine reductase derived from Streptomyces sp. GF3546; test: Substrate specificity of imine reductase: NADP+-dependent amine-oxidizing activity (increase in absorbance at 340 nm); type: biochemical; settings: oxidation, substrate 10 mM, coenzyme NADP+
Description: A reaction mixture containing 100 mM glycine/potassium chloride/potassium hydroxide buffer 10.5, 2.5 mM NADP^+, 10 mM (S)-2-methylpyrrolidine, and the enzyme was incubated at 30° C. The reaction mixture was assayed to determine the increase in absorbance at 340 nm due to the increase of NADPH. The amount of enzyme that catalyzes the increase of 1 μmol of NADPH per minute was defined as 1 U.
(§1) The enzyme prepared as described in Example 4 was incubated with various imine compounds.

[2] = test system: imine reductase derived from Streptomyces sp. GF3546; test: Substrate specificity of imine reductase: NADPH/NADH-dependent imine-reducing activity (decrease in absorbance at 340 nm); type: biochemical
Description: A reaction mixture containing the enzyme, 100 mM potassium phosphate buffer (pH 7.0), 0.2 mM NADPH, and 10 mM 2-methyl-1-pyrrolin was incubated at 30° C. The reaction mixture was assayed to determine the decrease in absorbance at 340 nm due to the decrease of NADPH. The amount of enzyme that catalyzes the decrease of 1 μmol of NADPH per minute was defined as 1 U.
as §1

[3] = first % column, activity of reducing 2-methyl-1-pyrroline taken as 100
[4] = second % column, (S)-2-methylpyrrolidine = 100.0
[5] = substrate 10 mM, coenzyme NADPH, activity of reducing 2-methyl-1-pyrroline taken as 100

Compound	Relative activity [1, 3] [%]	Relative activity [1, 4] [%]	Relative activity [2, 5] [%]	further results
CC(=Nc1ccccc1)c1ccccc1 (mixture of isomers) [N-((E/Z)-N-(1-phenylethylidene)aniline]			5.3	
COc1cc2c(cc1OC)C(C)=NCC2 [1-Methyl-6,7-dimethoxy-3,4-dihydroisoquinoline]				Relative activity ([2]; substrate 0.05 mM, coenzyme NADPH, activity of reducing 2-methyl-1-pyrroline taken as 100): 8.9%
CC1=NCCC1 [2-Methyl-1-pyrroline]			100.0	Relative activity ([2]; substrate 10 mM, coenzyme NADH, activity of reducing 2-methyl-1-pyrroline (NADPH) taken as 100): 0.0%
C(=NCc1ccccc1)c1ccccc1 [N-Benzylidenebenzylamine]			20.9	

The next lines start with results.

Relative activity [1, 3] [%]	Relative activity [1, 4] [%]	Compound	Relative activity [2, 5] [%]	further results
7.7	17.4	C[C@@H]1CCCN1 [(R)-2-Methylpyrrolidine]		
44.1	100.0	C[C@H]1CCCN1 [(S)-2-Methylpyrrolidine]		
